According to patent US10214507B2, “Carbazole-containing amides, carbamates, and ureas as cryptochrome modulators” (Reset Therapeutics, Inc., priority 2014, dated 2019):

Tests used:
[1] = test system: Dbp mRNA in whole blood of db/db mice; assay: Dbp mRNA in whole blood of db/db mice after three daily doses; type: in vivo, mouse; conditions: 100 mg/kg PO once daily 3 days, ZT7.5
Experimental: For whole blood RNA studies, male db/db mice (9 weeks of age, The Jackson Laboratory, Bar Harbor, Me.) were used for the experiment with n=8 mice for each experimental group. […] On the final day at ZT7.5 (2:30 pm), animals were euthanized using CO2 asphyxiation, and the blood collected from the heart via cardiac puncture. The blood was placed in RNALater solution to 1.5 ml total volume. Total RNA was prepared using an Ambion Mouse RiboPure Blood RNA Isolation Kit AM1951 as follows. Samples were centrifuged for 3 minutes, discarding the supernatant. Two ml of lysis solution was added and vortexed, transferred to a 15 ml tube followed by the addition of […]. Lysis buffer was added to a total volume of 3.8 ml and vortexed. The sample mixture was extracted with 1.5 ml Acid Phenol: Chloroform and the aqueous phase was recovered. After adding 0.5 volumes of 100% ethanol and vortexing, the samples were passed through a filter column provided in the kit and washed with 750 microliters of wash buffer 1. The filter was washed with 2 passes of 750 microliters wash buffer ⅔ and dried. RNA was eluted in 200 microliters of molecular biology grade water (RNase-free).
The levels of core clock gene mRNAs in whole blood may provide a non-invasive method of determining effects of compounds in treated subjects. […]

[2] = test system: db/db mouse model of type II diabetes; assay: Single dose at peak or nadir of clock gene expression, OGTT in db/db mice; type: in vivo
Text: Mice were split into two study arms, to be dosed at either the peak or nadir of Cry1 and Bmal1 gene expression. […] Mice dosed at ZT10 were fasted beginning at 8:30 am in the same manner.
Significance was accepted when p<0.05.

## O=C1NCCN1CC(O)Cn1c2ccc(F)cc2c2cc(F)ccc21 (centres unmarked) [Compound 72, 1-(3-(3,6-difluoro-9H-carbazol-9-yl)-2-hydroxypropyl)imidazolidin-2-one]
[1]
  Dbp gene expression in whole blood: statistically significant suppression
[2]; single dose 50 mg/kg PO at ZT0
  effect on OGTT measurement, dosed at peak of Cry1 and Bmal1 expression: apparent effect
[2]; single dose 50 mg/kg PO at ZT10
  effect on OGTT measurement, dosed at nadir: no effect
[2]; single dose 50 mg/kg PO at peak (ZT0), mean+/-S.E.M.
  glucose AUC calculated from the OGTT: 63842+/−4318
[2]; single dose 50 mg/kg PO at peak (ZT0), vs vehicle
  reduction in glucose excursion (AUC): 14%
